Assay results as given in the NIST ThermoML archive (doi:10.1021/je300852v).

Experiment: mean ionic activity coefficient (dimensionless); mn = molality of the nth substance listed, in mol/kg
Settings: 298.15 K, 101 kPa, Liquid, 2 term dubye huckel

[Ca+2].[Cl-].[Cl-] [calcium chloride] + O
Settings | mean ionic activity coefficient
m1 = 0.01 | 0.728
m1 = 0.02 | 0.664
m1 = 0.05 | 0.576
m1 = 0.1 | 0.517
m1 = 0.2 | 0.47
m1 = 0.3 | 0.453
m1 = 0.4 | 0.448
m1 = 0.5 | 0.449
m1 = 0.6 | 0.454
m1 = 0.7 | 0.462
m1 = 0.8 | 0.473
m1 = 0.9 | 0.487
m1 = 1 | 0.502
m1 = 1.2 | 0.54
m1 = 1.4 | 0.586
m1 = 1.6 | 0.643
m1 = 1.8 | 0.71
m1 = 2 | 0.79
m1 = 2.5 | 1.064
m1 = 3 | 1.49
